The subject of assay [1] is hepatitis B surface antigen. The assay can be described thus: Antibody response to hepatitis B surface antigen with octadecyl amino acid immunoadjuvants, radioimmunoassay of sera. The class given is in vivo, BALB/c mice. To be noted: 50 ng HBsAg i.m. day 1, boost 35 ng day 21, 100 µg octadecyl amino acid. As to the method: BALB/c mice were immunized with 50 ng of hepatitis B surface antigen in the presence of adjuvant for the non-control mice and in the absence of adjuvant for the control mice. The hepatitis B surface antigen was obtained from 3T3 cells transfected with the gene for the surface antigen. 100 µg of octadecyl amino acid was complexed with the polypeptide as described in Example 2. This mixture, in a total volume of 0.1 ml, was injected on day 1 using an intramuscular route, and the mice were bled on days 7, 14, 21, 28, 35, 42 and 61. The mice were boosted with 35 ng of the polypeptide on day 21.
The antibody concentration in the sera was determined by radioimmunoassay. The antibody concentration was estimated by comparison with a standard curve obtained using a monoclonal antibody.

In another assay the test system is HIV-1 polypeptide. In words: Antibody response to HIV-1 polypeptide in baboons with octadecyl tyrosine hydrochloride, radioimmunoassay. The class given is in vivo. How it is done:
3) Experiments in baboons Two baboons were immunized with 300 µg of chemically synthesized polypeptide, corresponding to the amino acid sequence of residues 503-535 of HIV-1, coupled to Keyhole Limpet Hemocyanin. 500 µg of octadecyl tyrosine hydrochloride was complexed with the polypeptide, as described in Example 2. This mixture in a total volume of 1.0 ml was injected on day 1 and again on day 35. The animals were bled 3 days before the first immunization, and on days 14, 32 and 49. The same experiment was undertaken with another two baboons, but with polypeptide corresponding to the amino acid sequence 526-535 of HIV-1. The antibody concentration in the sera was indirectly measured by radioimmunoassay. Tiltration was undertaken by incubation of samples on plates coated with peptide-albumin conjugate, and reaction with iodine-125 labelled rabbit anti-monkey immunoglobulin.

Turning to Octadecyl Forphenicine, the Anti-HBsAg antibody concentration in assay [1] (day 7) came to 100 ng/mL; in assay [1] (day 14) it was 112 ng/mL; in assay [1] (day 21) it was 116 ng/mL; in assay [1] (day 28), 908 ng/mL; in assay [1] (day 35), 592 ng/mL; in assay [1] (day 61), 355 ng/mL.

On to `CCCCCCCCCCCCCCCCCCOC(=O)CCN`, for which the Anti-HBsAg antibody concentration in assay [1] (day 7) was 31 ng/mL; in assay [1] (day 14) it was 45 ng/mL; in assay [1] (day 21) it was 44 ng/mL; in assay [1] (day 28), 120 ng/mL; in assay [1] (day 35), 337 ng/mL; in assay [1] (day 61), 373 ng/mL.

Turning to `CCCCCCCCCCCCCCCCCCOC(=O)C(N)CCCCN` (centres unmarked) [Octadecyl Lysine], the Anti-HBsAg antibody concentration in assay [1] (day 7) came to 33 ng/mL; in assay [1] (day 14), 55 ng/mL; in assay [1] (day 21), 39 ng/mL; in assay [1] (day 28) it was 51 ng/mL; in assay [1] (day 35), 67 ng/mL; in assay [1] (day 61) it was 53 ng/mL.

In the case of “H-Val-Ala-Pro-Thr-Lys-Ala-Lys-Arg-Arg-Val-Val-Gln-Arg-Glu-Lys-Arg-Ala-Val-Gly-Ile-Gly-Ala-Leu-Phe-Leu-Gly-Phe-Leu-Gly-Ala-Ala-Gly-Ser- (VAPTKAKRRVVQREKRAVGIGALFLGFLGAAGS; printed: Val-Ala-Pro-Thr-Lys-Ala-Lys-Arg-Arg-Val-Val-Gln-Arg-Glu-Lys-Arg-Ala-Val-Gly-Ile-Gly-Ala-Leu-Phe-Leu-Gly-Phe-Leu-Gly-Ala-Ala-Gly-Ser-) [503-535]”, the “Antibody response to HIV-1 polypeptide” value in the assay with HIV-1 polypeptide (ANIMAL 1, day 14, 300 µg polypeptide-KLH + 500 µg octadecyl tyrosine hydrochloride on day 1 and 35, background subtracted) is given as 2004 CPM; in the assay on HIV-1 polypeptide (ANIMAL 1, day 32, 300 µg polypeptide-KLH + 500 µg octadecyl tyrosine hydrochloride on day 1 and 35, background subtracted), 2185 CPM; with HIV-1 polypeptide (ANIMAL 1, day 49, 300 µg polypeptide-KLH + 500 µg octadecyl tyrosine hydrochloride on day 1 and 35, background subtracted), 5948 CPM; with HIV-1 polypeptide (ANIMAL 1, day -3 (bled before the first immunization), after subtraction of background on bovine serum albumin coated plates) it was 1020 CPM; with HIV-1 polypeptide (ANIMAL 2, day 14, 300 µg polypeptide-KLH + 500 µg octadecyl tyrosine hydrochloride on day 1 and 35, background subtracted), 2160 CPM; in the assay with HIV-1 polypeptide (ANIMAL 2, day 32, 300 µg polypeptide-KLH + 500 µg octadecyl tyrosine hydrochloride on day 1 and 35, background subtracted), 2121 CPM. Also, the “Antibody response to HIV-1 polypeptide” value is 4470 CPM in the assay with HIV-1 polypeptide (ANIMAL 2, day 49, 300 µg polypeptide-KLH + 500 µg octadecyl tyrosine hydrochloride on day 1 and 35, background subtracted); 1530 CPM in the assay with HIV-1 polypeptide (ANIMAL 2, day -3 (bled before the first immunization), after subtraction of background on bovine serum albumin coated plates).

Take `CCCCCCCCCCCCCCCCCCOC(=O)C(N)CC(C)C` (centres unmarked): the Anti-HBsAg antibody concentration was 48 ng/mL in assay [1] (day 7); 42 ng/mL in assay [1] (day 14); 37 ng/mL in assay [1] (day 21); 160 ng/mL in assay [1] (day 28); 590 ng/mL in assay [1] (day 35); 496 ng/mL in assay [1] (day 61).

`CCCCCCCCCCCCCCCCCCOC(=O)CN`: the Anti-HBsAg antibody concentration in assay [1] (day 7) worked out at 47 ng/mL; in assay [1] (day 14) it was 38 ng/mL; in assay [1] (day 21) it was 51 ng/mL; in assay [1] (day 28), 147 ng/mL; in assay [1] (day 35), 748 ng/mL; in assay [1] (day 61), 301 ng/mL.

Regarding Octadecyl Forphenicinol, the Anti-HBsAg antibody concentration turned out to be 31 ng/mL in assay [1] (day 7); 40 ng/mL in assay [1] (day 14); 26 ng/mL in assay [1] (day 21); 65 ng/mL in assay [1] (day 28); 306 ng/mL in assay [1] (day 35); 98 ng/mL in assay [1] (day 61).

On to `CCCCCCCCCCCCCCCCCCOC(=O)C1CCCN1` (centres unmarked), for which the Anti-HBsAg antibody concentration came to 49 ng/mL in assay [1] (day 7); 35 ng/mL in assay [1] (day 14); 41 ng/mL in assay [1] (day 21); 72 ng/mL in assay [1] (day 28); 409 ng/mL in assay [1] (day 35); 168 ng/mL in assay [1] (day 61).

The values are drawn from EP0597838B1, “VACCINE COMPOSITIONS” (NORTH AMERICAN VACCINE, INC., priority 1990, dated 1991).
